Test results published in patent publication US20110306762A1, “ACID ADDITION SALT OF UDENAFIL, PREPARATION METHOD THEREOF AND PHARMACEUTICAL COMPOSITION COMPRISING THE SAME” (priority 2009, published 2011).

Experiments:
[1] = Crystallinity test of acid addition salts of Udenafil; type: physicochemical; parameters: key: ◯: Formation of crystal; X: No formation of crystal; conditions: for Crystallinity test 1-2: crystallization: whether crystallization occurs after dissolving the salt in a suitable solvent; for Crystallinity test 1-1: detecting whether the crystal is formed in the reaction solution
Description: The acid addition salts of Udenafil obtained in Examples 1 to 6 and Comparative Examples were tested for crystallinity and hygroscopicity as follows.
1) detecting whether the crystal is formed in the reaction solution, and
2) crystallization: detecting whether crystallization occurs after dissolving acid addition salt of Udenafil in a suitable solvent.

[2] = Hygroscopicity test of acid addition salts of Udenafil; type: physicochemical; conditions: exposed for 2 hours, room temperature, relative humidity 43%
[3] = Solubility test in distilled water by HPLC; type: physicochemical
Description: To test the solubility of the acid addition salts of Udenafil in distilled water, the following experiments were preformed.
The analysis conditions for HPLC were as follows:
Detector: ultraviolet ray absorbance measured at wavelength 292 nm
Column: octadecyl silica gel C18 (4.6×150 mm, 5 μm)
Mobile phase: an aqueous solution of potassium dihydrogenphosphate (0.02M):acetonitrile=70:30

[4] = in vivo; cited from earlier work
PDE-5 = PDE-5 (Homo sapiens, UniProt O76074); conditions: compared with the conventional compounds; cited from earlier work

| Molecule | Crystallinity test 1-2 [1] | Crystallinity test 1-1 [1] | also measured |
| --- | --- | --- | --- |
| CC1(C)C2CCC1(CS(=O)(=O)O)C(=O)C2.CCCOc1ccc(S(=O)(=O)NCCC2CCCN2C)cc1-c1nc2c(CCC)nn(C)c2c(=O)[nH]1 (centres unmarked) [Example 3, Camphorsulfonic Acid Addition Salt of Udenafil] | ◯ | ◯ | Hygroscopicity (weight change ratio, %) [2]: 0.7%; solubility in the distilled water [3]: remarkably excellent solubility; Average of measured peak area ([3]; HPLC, UV 292 nm): 7,142,473; First measured peak area ([3]; HPLC, UV 292 nm): 7,141,140; second measured peak area ([3]; HPLC, UV 292 nm): 7,127,027; third measured peak area ([3]; HPLC, UV 292 nm): 7,158,961 |
| CCCOc1ccc(S(=O)(=O)NCCC2CCCN2C)cc1-c1nc2c(CCC)nn(C)c2c(=O)[nH]1 (centres unmarked) [Udenafil, 5-[2-propyloxy-5-(1-methyl-2-pyrrolidinyleneamidosulfonyl)phenyl]-1-methyl-propyl-1,6-dihydro-7H-pyrazolo(4,3-d)pyrimidine-7-one] |  |  | half-life [4]: 12 h; time to maximum peak plasma concentration [4]: 1 h; selectivity to PDE-5 (PDE-5): notably higher selectivity; solubility in the distilled water [3]: hardly dissolved; detection in the distilled water ([3]; HPLC): not detected |
| N[C@@H](CC(=O)O)C(=O)O [aspartic acid] | X | X |  |
| O=C(O)CC(O)(CC(=O)O)C(=O)O [citric acid] | X | X |  |
| O=CO [formic acid] | X | X |  |
| O=C(O)/C=C/C(=O)O [fumaric acid] | X | X |  |
| N[C@@H](CCC(=O)O)C(=O)O [glutamic acid] | X | X |  |
| O=C(O)CCCC(=O)O [glutaric acid] | X | X |  |
| O=C(O)CNC(=O)c1ccccc1 [hippuric acid] | X | X |  |
| CC(O)C(=O)O (centres unmarked) [lactic acid] | X | X |  |
| O=C(O)/C=C\C(=O)O [maleci acid] | X | X |  |
| O=C(O)/C=C\C(=O)O [maleic acid] | X | X |  |
| O=C(O)CC(=O)O [malonic acid] | X | X |  |
| O=C(O)CCC(=O)O [succinic acid] | X | X |  |
| O=C(O)C(O)C(O)C(=O)O (centres unmarked) [tartaric acid] | X | X |  |
| Adipic Acid Addition Salt of Udenafil [Example 5] | ◯ | ◯ |  |
| Benzenesulfonic Acid Addition Salt of Udenafil [Example 2] | ◯ | ◯ |  |
| Cinnamic Acid Addition Salt of Udenafil [Example 4] | ◯ | ◯ |  |
| Oxalic Acid Addition Salt of Udenafil [Example 1] | ◯ | ◯ |  |
